According to patent US12653865B2, “Dual-agonist compound for both GLP-1 and GIP receptors and application thereof” (Jiangsu Hengrui Pharmaceuticals Co., Ltd., priority 2020, dated 2026):
*1 amine or outer side, *2 acyl side, *3 side chain or, on linkers, in order; H or OH if unused. Where a SMILES comes first, the peptide text is derived from it. Side-chain parts run from the residue outwards. [ ]: non-standard residue; d: D form. The star is where a group is joined. C20 diacid = O=C(O)CCCCCCCCCCCCCCCCCCC(=O)*; γGlu = O=C(O)[C@H](CCC(=O)[*:2])N[*:1]; AEEA = NCCOCCOCC(=O)O; Aib = CC(C)(N)C(=O)O

Key:
[1] = test system: normal mice; experiment: Blood glucose in normal mice after single subcutaneous injection and intraperitoneal glucose; format: in vivo, C57BL/6 mice; details: 10 nmol/kg sc; for Blood glucose: glucose ip 18 h later
Experimental: 18 h later, a glucose solution at a concentration of 0.2 g/mL was intraperitoneally injected. Blood glucose values were measured by collecting blood from the tail of mice at time points of 0 min, 15 min, 30 min, 60 min, and 120 min according to the experimental design. The specific procedures were as follows: the mouse was physically immobilized with the tail exposed, and a little was cut off the tail, then the tail was squeezed to bleed, and blood glucose was determined using a Roche active glucometer after the 1 st drop of blood was discarded. The area under the blood glucose curve (AUC) was calculated from the results of all points.

[2] = Stability in human plasma (LC-MS); format: in vitro ADME; details: 0 min (standard 100%)
Experimental: 5 μL of each of samples at concentrations of 20 ng/mL, 50 ng/mL, 100 ng/mL, 200 ng/mL, 500 ng/mL, 1000 ng/mL, 2000 ng/mL, 5000 ng/mL and 10000 ng/mL was added to 45 μL of human plasma. The content of the compounds in the samples was determined by the LC-MS method and a standard curve was formed. 5 μL of a 1 mg/mL polypeptide solution was added to 45 μL of human plasma. […] With the content at 0 min as the standard (100%), the relative content of the retained compounds in the samples at other time points was calculated.

[3] = test system: diet-induced obese mice; experiment: Body weight and fat mass in diet-induced obese mice; format: in vivo, C57BL/6 mice; details: induced obese mice, 10 nmol/kg sc
Experimental: High-fat food-induced obese male C57BL/6 mice (weighing 35-55 g, aged 10-12 weeks, purchased from Shanghai Jiesijie Laboratory Animal Co., Ltd.) were tested. […] According to the experimental design, the body weight of each mouse was measured and recorded on day 0, day 3, day 6 and so on to day 27, the average body weight of each group of mice was calculated, and weight change curves were plotted by taking the body weight on the first day as the standard. At the end, the fat and other visceral organs of each part of the mice were taken out and weighed, and the viscera/brain ratio for fat in each part of each mouse was calculated. The effect of the drug on the fat was determined by comparing the change in the organ/brain ratio for fat of different parts of each group of mice.

CC[C@H](C)[C@H](NC(=O)[C@H](CCCCN)NC(=O)[C@H](CC(=O)O)NC(=O)[C@H](CCCCNC(=O)COCCOCCNC(=O)COCCOCCNC(=O)CC[C@H](NC(=O)CCCCCCCCCCCCCCCCCCC(=O)O)C(=O)O)NC(=O)[C@H](Cc1ccc(O)cc1)NC(=O)[C@@H](NC(=O)[C@H](CO)NC(=O)[C@H](Cc1ccc(O)cc1)NC(=O)[C@H](CC(=O)O)NC(=O)[C@H](CO)NC(=O)[C@@H](NC(=O)[C@H](Cc1ccccc1)NC(=O)[C@@H](NC(=O)CNC(=O)[C@H](CCC(=O)O)NC(=O)C(C)(C)NC(=O)[C@@H](N)Cc1ccc(O)cc1)[C@@H](C)O)[C@@H](C)O)[C@@H](C)CC)C(=O)N[C@@H](C)C(=O)N[C@@H](C)C(=O)N[C@@H](CCC(N)=O)C(=O)N[C@@H](CCC(=O)O)C(=O)N[C@@H](Cc1ccccc1)C(=O)N[C@H](C(=O)N[C@@H](CC(N)=O)C(=O)N[C@@H](Cc1c[nH]c2ccccc12)C(=O)N[C@@H](CC(C)C)C(=O)N[C@@H](CC(C)C)C(=O)N[C@@H](C)C(=O)NCC(=O)NCC(=O)N1CCC[C@H]1C(=O)N[C@@H](CO)C(=O)N[C@@H](CO)C(=O)NCC(=O)N[C@@H](C)C(=O)N1CCC[C@H]1C(=O)N1CCC[C@H]1C(=O)N1CCC[C@H]1C(=O)N[C@@H](CO)C(N)=O)C(C)C [Compound 7#] (H-Y[Aib]EGTFTSDYSIYK([AEEA-AEEA-γGlu-C20 diacid])DKIAAQEFVNWLLAGGPSSGAPPPS-NH2)
reduction of area under the blood glucose curve compared to placebo [1]: more than 60% | Blood glucose ([1]; 0 min): 4.4 ± 0.8 mmol/L | Blood glucose ([1]; 15 min): 6.7 ± 0.8 mmol/L | Blood glucose ([1]; 30 min): 6.2 ± 1.3 mmol/L | Blood glucose ([1]; 60 min): 5.7 ± 1.2 mmol/L | Blood glucose ([1]; 120 min): 3.8 ± 1.1 mmol/L | relative content of compounds retained in plasma [2]: 100.00% | Changes in body weight ([3]; Day 1): 0% | Changes in body weight ([3]; Day 4): −11.0% | Changes in body weight ([3]; Day 7): −17.6% | Changes in body weight ([3]; Day 10): −22.6% | Changes in body weight ([3]; Day 13): −22.3% | Changes in body weight ([3]; Day 16): −22.7% | Changes in body weight ([3]; Day 19): −25.9% | Changes in body weight ([3]; Day 22): −23.9% | Changes in body weight ([3]; Day 25): −23.9% | Changes in body weight ([3]; Day 28): −25.5%
